# Measured values: US20220387339A1, “SUPERFINE COMPOUNDS AND PRODUCTION THEREOF” (Esolate Ltd, priority 2019, published 2022)
# Experiments:
# [1] = Visual solubility in simulated stomach conditions (Example 5); assay type: physicochemical
# Experimental: Bioavailability of the cannabinoid ultrafine nanoparticles obtained as described in Example 4 was assessed by visually evaluating the solubility of the fine nanoparticles in simulated stomach conditions. 0.5 g of NaCl was added to a 0.155 M solution of HCl in water to replicate stomach acidic conditions. 10 mg of the fine nanoparticles, 10 mg of the isolates in crystalline form, and 10 mg of the distillates were each placed in vials containing 10 ml of the acidic solution and incubated for 10 hours at 37° C. At the end of the 10-hour period, only minimal solubility of the preparations was observed. Additional 10 ml of the acidic solution were added, and the mixtures were incubated for 10 more hours at 37° C. At the end of the 20-hour period, the cannabinoid nanoparticles dissolved in the acidic solution.
# [2] = isolates currently available; cited from earlier work
# [3] = Relative bioavailability test: CBD concentration in water by HPLC-UV (Example 6); assay type: physicochemical; conditions: after 32 hours elapsed time, 0.45 μm filtered
# Experimental: Relative bioavailability tests of the cannabinoid ultrafine nanoparticles obtained as described in Example 4 (test samples) as compared to cannabinoid isolates in water (control samples) were performed using a high performance liquid chromatography (HPLC) separator equipped with a UV detector to determine the concentration of CBD in each sample. Control samples were prepared by filtering 1 ml of each sample through a 0.45 μm filter into a 2 ml HPLC vial and 1 ml of methanol (MeOH) was added to each sample vial. HPLC mobile phase was comprised of 65% acetonitrile and 35% water. A flow rate of 1 ml per minute led to the elution of CBD after approximately 4.5 minutes.
# A percentage area was measured after 32 hours elapsed time, which represents the amount of CBD in each sample relative to the background signal created by the MeOH in each sample.
# [4] = Visual solubility in water before and after processing (FIGS. 3-4); assay type: physicochemical; conditions: FIGS. 3 and 4
# Excerpt: The crystals are insoluble in acid and in water.
# [5] = Solubility of cyclodextrins in supercritical CO2 under process conditions (Example 3); conditions: for solubility in supercritical CO2: experimental conditions: 40° C., 3,500 psi
molecule,measurement,setting,value
"C=C(C)[C@@H]1CCC(C)=C[C@H]1c1c(O)cc(CCCCC)cc1O [CBD isolate, cannabidiol]",solubility in acidic solution after 20 hours (visual),"[1]; 10 mg in 20 ml 0.155 M HCl with NaCl, 37° C., 20 hours",complete insolubility
same,solubility in acid (visual),"[1]; acidic solvent resembling stomach conditions, FIGS. 3 and 5",insoluble
same,solubility in water,[2],12.6 µg/mL
same,percentage area (amount of CBD relative to MeOH background signal),[3],0.7706%
same,solubility in water (visual),[4],insoluble
"CC(=O)OC[C@H]1O[C@@H]2O[C@H]3[C@H](OC(C)=O)[C@@H](OC(C)=O)[C@@H](O[C@H]4[C@H](OC(C)=O)[C@@H](OC(C)=O)[C@@H](O[C@H]5[C@H](OC(C)=O)[C@@H](OC(C)=O)[C@@H](O[C@H]6[C@H](OC(C)=O)[C@@H](OC(C)=O)[C@@H](O[C@H]7[C@H](OC(C)=O)[C@@H](OC(C)=O)[C@@H](O[C@H]8[C@H](OC(C)=O)[C@@H](OC(C)=O)[C@@H](O[C@H]1[C@H](OC(C)=O)[C@H]2OC(C)=O)O[C@@H]8COC(C)=O)O[C@@H]7COC(C)=O)O[C@@H]6COC(C)=O)O[C@@H]5COC(C)=O)O[C@@H]4COC(C)=O)O[C@@H]3COC(C)=O [ABCD, β-cyclodextrin heneicosaacetate]",solubility in supercritical CO2,[5],1.3 wt. %
α-cyclodextrin exadeacetate [AACD],solubility in supercritical CO2,[5],1.1 wt. %
Cyclodextrin,solubility under the process conditions (supercritical CO2),"[5]; 40° C., 3,500 psi",insoluble
